Data as given in PubChem BioAssay AID248 (DTP/NCI, 2004).
Several values for one entry are separate records, joined by “and”; a condition that tells them apart may be missing. Equal values may be shown once. Toxic doses and inconclusive results are not listed. No stated cut-off is given here; in the data, active means T/C of 150% or more; inactive means T/C below 125%.

Tested on: L1210 leukemia ip in BDF1 mice, survival T/C
Experiment: NCI In Vivo Anticancer Drug Screen. Data for tumor model L1210 Leukemia (intraperitoneal) in B6D2F1 (BDF1) mice
Details: higher = longer survival
How it was run: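 Read-out is survival time, reported as the treated-group measurement over the vehicle-control measurement.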

Measured: T/C

CN(C)c1nc(N(C)C)nc(N(C)C)n1
inactive: endpoint: mean survival time, dose: 2.5 mg/kg/injection, schedule: Q03HX040 (ip), vehicle: acetone 103 % of control | endpoint: mean survival time, dose: 4.8 mg/kg/injection, schedule: Q01DX Z (ip), vehicle: other 94 % of control | endpoint: mean survival time, dose: 5.0 mg/kg/injection, schedule: Q03HX040 (ip), vehicle: acetone 108 % of control | endpoint: mean survival time, dose: 5.0 mg/kg/injection, schedule: Q06HX020 (ip), vehicle: acetone 110 % of control | endpoint: mean survival time, dose: 5.5 mg/kg/injection, schedule: Q01DX009 (ip), vehicle: saline with Tween-80 104 % of control and 116 % of control | endpoint: mean survival time, dose: 8.5 mg/kg/injection, schedule: Q04DX002 (ip), vehicle: saline with Tween-80 93 % of control and 96 % of control | endpoint: mean survival time, dose: 9.4 mg/kg/injection, schedule: Q01DX009 (ip), vehicle: saline with Tween-80 92 % of control | endpoint: mean survival time, dose: 9.4 mg/kg/injection, schedule: Q01DX010 (ip), vehicle: saline 88 % of control and 92 % of control | endpoint: mean survival time, dose: 9.5 mg/kg/injection, schedule: Q01DX Z (ip), vehicle: other 100 % of control | endpoint: mean survival time, dose: 10.0 mg/kg/injection, schedule: Q03HX040 (ip), vehicle: acetone 106 % of control | endpoint: mean survival time, dose: 10.0 mg/kg/injection, schedule: Q06HX020 (ip), vehicle: acetone 110 % of control | endpoint: mean survival time, dose: 10.0 mg/kg/injection, schedule: Q12HX010 (ip), vehicle: acetone 100 % of control | endpoint: mean survival time, dose: 11.0 mg/kg/injection, schedule: Q01DX009 (ip), vehicle: saline with Tween-80 110 % of control and 118 % of control | endpoint: mean survival time, dose: 12.5 mg/kg/injection, schedule: Q01DX009 (ip), vehicle: saline with Tween-80 108 % of control | endpoint: mean survival time, dose: 17.0 mg/kg/injection, schedule: Q04DX002 (ip), vehicle: saline with Tween-80 100 % of control and 105 % of control | endpoint: mean survival time, dose: 18.8 mg/kg/injection, schedule: Q01DX009 (ip), vehicle: saline with Tween-80 103 % of control | endpoint: mean survival time, dose: 18.8 mg/kg/injection, schedule: Q01DX009 (ip), vehicle: saline 95 % of control and 92 % of control | endpoint: mean survival time, dose: 18.8 mg/kg/injection, schedule: Q01DX010 (ip), vehicle: saline 90 % of control and 91 % of control | endpoint: mean survival time, dose: 19.0 mg/kg/injection, schedule: Q01DX Z (ip), vehicle: other 101 % of control | endpoint: mean survival time, dose: 20.0 mg/kg/injection, schedule: Q01DX005 (ip), vehicle: acetone 101 % of control and 103 % of control | endpoint: mean survival time, dose: 20.0 mg/kg/injection, schedule: Q01DX009 (ip), vehicle: Klucel (hydroxypropylcellulose) (HPC) 99 % of control | endpoint: mean survival time, dose: 20.0 mg/kg/injection, schedule: Q01DX009 (ip), vehicle: saline with Tween-80 100 % of control | endpoint: mean survival time, dose: 20.0 mg/kg/injection, schedule: Q03HX040 (ip), vehicle: acetone 107 % of control | endpoint: mean survival time, dose: 20.0 mg/kg/injection, schedule: Q06HX020 (ip), vehicle: acetone 106 % of control | endpoint: mean survival time, dose: 20.0 mg/kg/injection, schedule: Q12HX010 (ip), vehicle: acetone 104 % of control | endpoint: mean survival time, dose: 25.0 mg/kg/injection, schedule: Q01DX009 (ip), vehicle: saline with Tween-80 98 % of control | endpoint: mean survival time, dose: 30.0 mg/kg/injection, schedule: Q03HX040 (ip), vehicle: saline 110 % of control | endpoint: mean survival time, dose: 34.0 mg/kg/injection, schedule: Q04DX002 (ip), vehicle: saline with Tween-80 100 % of control and 101 % of control | endpoint: mean survival time, dose: 37.5 mg/kg/injection, schedule: Q01DX009 (ip), vehicle: saline with Tween-80 98 % of control | endpoint: mean survival time, dose: 37.5 mg/kg/injection, schedule: Q01DX009 (ip), vehicle: saline 94 % of control and 95 % of control | endpoint: mean survival time, dose: 37.5 mg/kg/injection, schedule: Q01DX010 (ip), vehicle: saline 95 % of control and 91 % of control | endpoint: mean survival time, dose: 38.0 mg/kg/injection, schedule: Q01DX Z (ip), vehicle: other 96 % of control | endpoint: mean survival time, dose: 40.0 mg/kg/injection, schedule: Q01DX005 (ip), vehicle: acetone 100 % of control and 110 % of control | endpoint: mean survival time, dose: 40.0 mg/kg/injection, schedule: Q01DX009 (ip), vehicle: Klucel (hydroxypropylcellulose) (HPC) 101 % of control | endpoint: mean survival time, dose: 40.0 mg/kg/injection, schedule: Q01DX009 (ip), vehicle: saline with Tween-80 101 % of control | endpoint: mean survival time, dose: 40.0 mg/kg/injection, schedule: Q06HX020 (ip), vehicle: acetone 118 % of control | endpoint: mean survival time, dose: 40.0 mg/kg/injection, schedule: Q12HX010 (ip), vehicle: acetone 107 % of control | endpoint: mean survival time, dose: 50.0 mg/kg/injection, schedule: Q01DX001 (ip), vehicle: saline with Tween-80 97 % of control | endpoint: mean survival time, dose: 50.0 mg/kg/injection, schedule: Q01DX009 (ip), vehicle: saline with Tween-80 107 % of control | endpoint: mean survival time, dose: 50.0 mg/kg/injection, schedule: Q12HX010 (ip), vehicle: saline 96 % of control | endpoint: mean survival time, dose: 68.0 mg/kg/injection, schedule: Q04DX002 (ip), vehicle: saline with Tween-80 104 % of control and 105 % of control | endpoint: mean survival time, dose: 75.0 mg/kg/injection, schedule: Q01DX009 (ip), vehicle: saline with Tween-80 111 % of control | endpoint: mean survival time, dose: 75.0 mg/kg/injection, schedule: Q01DX009 (ip), vehicle: saline 94 % of control and 91 % of control | endpoint: mean survival time, dose: 75.0 mg/kg/injection, schedule: Q01DX010 (ip), vehicle: saline 98 % of control and 92 % of control | endpoint: mean survival time, dose: 80.0 mg/kg/injection, schedule: Q01DX005 (ip), vehicle: acetone 104 % of control and 106 % of control | endpoint: mean survival time, dose: 80.0 mg/kg/injection, schedule: Q01DX009 (ip), vehicle: Klucel (hydroxypropylcellulose) (HPC) 100 % of control | endpoint: mean survival time, dose: 80.0 mg/kg/injection, schedule: Q01DX009 (ip), vehicle: saline with Tween-80 105 % of control | endpoint: mean survival time, dose: 80.0 mg/kg/injection, schedule: Q12HX010 (ip), vehicle: acetone 115 % of control | endpoint: mean survival time, dose: 85.0 mg/kg/injection, schedule: Q01DX001 (ip), vehicle: other 94 % of control | endpoint: mean survival time, dose: 100.0 mg/kg/injection, schedule: Q01DX001 (ip), vehicle: saline with Tween-80 98 % of control | endpoint: mean survival time, dose: 100.0 mg/kg/injection, schedule: Q01DX009 (ip), vehicle: saline with Tween-80 97 % of control | endpoint: mean survival time, dose: 100.0 mg/kg/injection, schedule: Q12HX010 (ip), vehicle: saline 98 % of control | endpoint: mean survival time, dose: 125.0 mg/kg/injection, schedule: Q01DX001 (ip), vehicle: other 109 % of control | endpoint: mean survival time, dose: 130.0 mg/kg/injection, schedule: Q01DX001 (ip), vehicle: other 101 % of control | endpoint: mean survival time, dose: 136.0 mg/kg/injection, schedule: Q04DX002 (ip), vehicle: saline with Tween-80 96 % of control and 98 % of control | endpoint: mean survival time, dose: 150.0 mg/kg/injection, schedule: Q01DX009 (ip), vehicle: saline with Tween-80 124 % of control | endpoint: mean survival time, dose: 150.0 mg/kg/injection, schedule: Q01DX009 (ip), vehicle: saline 93 % of control and 102 % of control | endpoint: mean survival time, dose: 160.0 mg/kg/injection, schedule: Q01DX009 (ip), vehicle: Klucel (hydroxypropylcellulose) (HPC) 107 % of control and 87 % of control | endpoint: mean survival time, dose: 160.0 mg/kg/injection, schedule: Q01DX009 (ip), vehicle: saline with Tween-80 109 % of control | endpoint: mean survival time, dose: 195.0 mg/kg/injection, schedule: Q01DX001 (ip), vehicle: other 94 % of control | endpoint: mean survival time, dose: 200.0 mg/kg/injection, schedule: Q01DX001 (ip), vehicle: saline with Tween-80 101 % of control | endpoint: mean survival time, dose: 200.0 mg/kg/injection, schedule: Q01DX009 (ip), vehicle: saline with Tween-80 124 % of control | endpoint: mean survival time, dose: 240.0 mg/kg/injection, schedule: Q01DX009 (ip), vehicle: Klucel (hydroxypropylcellulose) (HPC) 86 % of control | endpoint: mean survival time, dose: 250.0 mg/kg/injection, schedule: Q01DX001 (ip), vehicle: other 100 % of control | endpoint: mean survival time, dose: 272.0 mg/kg/injection, schedule: Q04DX002 (ip), vehicle: saline with Tween-80 100 % of control and 105 % of control | endpoint: mean survival time, dose: 400.0 mg/kg/injection, schedule: Q01DX001 (ip), vehicle: saline with Tween-80 98 % of control | endpoint: mean survival time, dose: 500.0 mg/kg/injection, schedule: Q01DX001 (ip), vehicle: other 112 % of control | endpoint: median survival time, dose: 18.8 mg/kg/injection, schedule: Q01DX009 (ip), vehicle: saline 100 % of control and 114 % of control | endpoint: median survival time, dose: 37.5 mg/kg/injection, schedule: Q01DX009 (ip), vehicle: saline 100 % of control and 114 % of control | endpoint: median survival time, dose: 75.0 mg/kg/injection, schedule: Q01DX009 (ip), vehicle: saline 100 % of control and 111 % of control | endpoint: median survival time, dose: 150.0 mg/kg/injection, schedule: Q01DX009 (ip), vehicle: saline 111 % of control and 121 % of control

Nc1ncnc(Nc2ccccc2Oc2ccccc2)n1
inactive: endpoint: mean survival time, dose: 100.0 mg/kg/injection, schedule: Q01DX001 (ip), vehicle: carboxymethylcellulose (CMC) 97 % of control | endpoint: mean survival time, dose: 200.0 mg/kg/injection, schedule: Q01DX001 (ip), vehicle: carboxymethylcellulose (CMC) 92 % of control | endpoint: mean survival time, dose: 400.0 mg/kg/injection, schedule: Q01DX001 (ip), vehicle: carboxymethylcellulose (CMC) 86 % of control

CCOC(=O)C(Br)c1cccc(OC)c1 (configuration not stated)
inactive: endpoint: mean survival time, dose: 100.0 mg/kg/injection, schedule: Q01DX009 (ip), vehicle: saline sonified 107 % of control | endpoint: mean survival time, dose: 100.0 mg/kg/injection, schedule: Q04DX003 (ip), vehicle: saline sonified 117 % of control | endpoint: mean survival time, dose: 132.0 mg/kg/injection, schedule: Q04DX003 (ip), vehicle: saline sonified 104 % of control | endpoint: mean survival time, dose: 200.0 mg/kg/injection, schedule: Q01DX009 (ip), vehicle: saline sonified 96 % of control | endpoint: mean survival time, dose: 200.0 mg/kg/injection, schedule: Q04DX003 (ip), vehicle: saline sonified 96 % of control | endpoint: mean survival time, dose: 300.0 mg/kg/injection, schedule: Q04DX003 (ip), vehicle: saline sonified 89 % of control | endpoint: mean survival time, dose: 400.0 mg/kg/injection, schedule: Q01DX009 (ip), vehicle: saline sonified 98 % of control | endpoint: mean survival time, dose: 400.0 mg/kg/injection, schedule: Q04DX003 (ip), vehicle: saline sonified 106 % of control
